Results: US20230133209A1, “CELL CLASSIFIER CIRCUITS AND METHODS OF USE THEREOF” (Eidgenössische Technische Hochschule Zürich, priority 2020, published 2023)

System: HepG2-LC tumor-bearing mice
Assay: Antitumor efficacy in orthotopic HepG2 xenograft tumor model (bioluminescence tumor load, score sheet)
Assay type: in vivo, mouse
Method: Accordingly, this tumor-targeting program was evaluated in a pilot experiment in the context of orthotopic xenograft tumor model employing HepG2 cells in NSG mice. For the purpose of tumor establishment and tracking, HepG2 cells were stably modified with a lentiviral vector encoding an mCitrine fluorescent protein and firefly luciferase gene, and sorted for homogenous mCitrine expression. The tumors were established by splenic injection of 1M HepG2-LC cells and subsequent spleen dissection.
To gauge antitumor efficacy in vivo, AAV-DJ-HCC.V1-HSV-TK was delivered to HepG2 tumor bearing mice in two consecutive injections, three days apart. The four experimental groups (n=2 in this pilot) included the AAV-DJ-HCC.V1-HSV-TK in combination with GCV regimen (treatment arm), the same vector alone without GCV, sham injection supplemented with GCV regimen, and a sham PBS injection and no GCV.
Next, DJ-pseudotyped AAV vectors harboring the circuit were delivered systemically to HepG2-LC tumor-bearing mice (FIG. 7A). […]
Xenograft mouse liver mouse model: All animal procedures were performed in accordance with the Swiss federal law and institutional guidelines of Eidgenössische Technische Hochschule (ETH) Zurich, and approved by the animal ethics committee of canton Basel-Stadt. […] The tumor growth in mice was monitored by bioluminescence imaging 2-3 times per week (PhotonIMAGER RT, Biospace Lab). […]

Nc1nc(O)c2ncn(COC(CO)CO)c2n1 [GCV, ganciclovir]
tumor load over time (bioluminescence) (n=4 per arm, sham injection + GCV): exponential tumor load increase over time | antitumor activity (tumor load, bioluminescence) (pilot, n=2, sham injection supplemented with GCV regimen): absent
